Common to all, as to format: functional
Conditions in all cases: Macrococcoides caseolyticum

Test [1] deals with Macrococcus caseolyticus. Kind of test: Antimicrobial activity against multidrug-resistant Macrococcus caseolyticus JCSC5402 containing plasmid pMCCL2 which carries transposon containing (mecA(m)-mecR1(m)-mecI(m)-blaZ(m)) complex isolated from chicken by agar dilution method.
Test [2] deals with Macrococcus caseolyticus. The test can be described thus: Antimicrobial activity against multidrug-resistant Macrococcus caseolyticus JCSC7096 containing plasmid pMCCL2 which carries transposon containing (mecA(m)-mecR1(m)-mecI(m)-blaZ(m)) complex isolated from chicken by agar dilution method. For orientation: In agar dilution, organisms are placed on agar that contains the substance at set levels.

For test [3], the system named is Macrococcus caseolyticus. Kind of test: Antimicrobial activity against multidrug-resistant Macrococcus caseolyticus JCSC7528 containing plasmid pMCCL2 which carries transposon containing (mecA(m)-mecR1(m)-mecI(m)-blaZ(m)) complex isolated from chicken by agar dilution method.
Test [4] deals with Macrococcus caseolyticus. Kind of test: Antimicrobial activity against Macrococcus caseolyticus ATCC 13548T by agar dilution method.
Test [5] concerns Macrococcus caseolyticus. The test can be described thus: Antimicrobial activity against Macrococcus caseolyticus ATCC 51834 by agar dilution method.
In test [6] the test system is Macrococcus caseolyticus. Kind of test: Antimicrobial activity against Macrococcus caseolyticus ATCC 51835 by agar dilution method.
Test [7] deals with Macrococcus caseolyticus. The test can be described thus: Antimicrobial activity against Macrococcus caseolyticus ATCC 29750 by agar dilution method.

Converted amounts (≈) assume the structure as drawn.

Take `Cc1onc(-c2ccccc2)c1C(=O)N[C@@H]1C(=O)N2[C@@H]1SC(C)(C)[C@@H]2C(=O)O` [OXACILLIN]: the MIC (as a rule, the least concentration at which growth counts as inhibited) with Macrococcus caseolyticus [1] worked out at 128 µg/mL (≈ 319 µM); in the test on Macrococcus caseolyticus [2], 64 µg/mL (≈ 159 µM); against Macrococcus caseolyticus [3], 32 µg/mL (≈ 79.7 µM); against Macrococcus caseolyticus [4] it was 0.125 µg/mL (≈ 0.311 µM); in the test with Macrococcus caseolyticus [5], 0.125 µg/mL (≈ 0.311 µM); in the test on Macrococcus caseolyticus [6] it was 0.25 µg/mL (≈ 0.623 µM). In the test on Macrococcus caseolyticus [7], the MIC worked out at 0.125 µg/mL (≈ 0.311 µM).

Source of the values: ChEMBL document CHEMBL1255402, “Staphylococcal cassette chromosome mec-like element in Macrococcus caseolyticus” (2010).
